According to patent US10670605B2, “Cysteine reactive probes and uses thereof” (The Scripps Research Institute, priority 2015, dated 2020):

What was measured:
Experiment in all cases: Competitive isoTOP-ABPP in situ (fragment-treated cells)
Type in all cases: cell-based
[1] = target: cysteines in MDA-MB-231 and Ramos cells (Homo sapiens, UniProt P04818)
[2] = target: cysteines in MDA-MB-231 and Ramos cells (Homo sapiens, UniProt P07858)
[3] = target: T1, cysteines in MDA-MB-231 and Ramos cells (Homo sapiens, UniProt P24468)
T1 sequence (P24468 1-414): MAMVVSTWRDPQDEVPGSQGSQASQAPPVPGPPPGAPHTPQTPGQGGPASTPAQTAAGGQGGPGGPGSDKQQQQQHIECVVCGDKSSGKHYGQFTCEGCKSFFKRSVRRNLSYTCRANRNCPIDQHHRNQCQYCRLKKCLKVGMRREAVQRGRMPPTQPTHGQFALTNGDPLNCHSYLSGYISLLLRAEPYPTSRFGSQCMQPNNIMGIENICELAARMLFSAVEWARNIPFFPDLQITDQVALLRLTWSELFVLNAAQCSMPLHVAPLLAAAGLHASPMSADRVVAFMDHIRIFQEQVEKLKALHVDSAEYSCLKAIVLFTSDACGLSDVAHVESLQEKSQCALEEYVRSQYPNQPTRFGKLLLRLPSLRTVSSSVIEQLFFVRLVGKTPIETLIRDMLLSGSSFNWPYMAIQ

[4] = target: cysteines in MDA-MB-231 and Ramos cells (Homo sapiens, UniProt P35658); settings: for isoTOP-ABPP ratio P35658_C728: 200 μM, insitu, 231
[5] = target: cysteines in MDA-MB-231 and Ramos cells (Homo sapiens, UniProt P48643); settings: for isoTOP-ABPP ratio P48643_C253: 200 μM, insitu
[6] = target: T2, cysteines in MDA-MB-231 and Ramos cells (Homo sapiens, UniProt Q8NFH5); settings: for isoTOP-ABPP ratio Q8NFH5_C255: 200 μM, insitu, 231
T2 sequence (Q8NFH5 1-326): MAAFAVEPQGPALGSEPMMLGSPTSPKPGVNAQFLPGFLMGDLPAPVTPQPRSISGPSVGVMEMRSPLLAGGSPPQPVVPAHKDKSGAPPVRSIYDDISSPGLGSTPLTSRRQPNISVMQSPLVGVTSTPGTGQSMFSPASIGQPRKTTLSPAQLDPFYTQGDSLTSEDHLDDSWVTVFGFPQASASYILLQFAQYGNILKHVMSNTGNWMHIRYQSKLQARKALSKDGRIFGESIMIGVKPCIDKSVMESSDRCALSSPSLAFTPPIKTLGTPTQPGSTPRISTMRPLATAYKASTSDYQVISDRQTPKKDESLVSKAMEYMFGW

[7] = target: cysteines in MDA-MB-231 and Ramos cells (Homo sapiens, UniProt Q96NY7)
[8] = target: cysteines in MDA-MB-231 and Ramos cells (Homo sapiens, UniProt O60825); settings: 200 μM, insitu
[9] = target: T3, cysteines in MDA-MB-231 and Ramos cells (Homo sapiens, UniProt Q15398); settings: 200 μM, insitu, 231
T3 sequence (Q15398 1-846): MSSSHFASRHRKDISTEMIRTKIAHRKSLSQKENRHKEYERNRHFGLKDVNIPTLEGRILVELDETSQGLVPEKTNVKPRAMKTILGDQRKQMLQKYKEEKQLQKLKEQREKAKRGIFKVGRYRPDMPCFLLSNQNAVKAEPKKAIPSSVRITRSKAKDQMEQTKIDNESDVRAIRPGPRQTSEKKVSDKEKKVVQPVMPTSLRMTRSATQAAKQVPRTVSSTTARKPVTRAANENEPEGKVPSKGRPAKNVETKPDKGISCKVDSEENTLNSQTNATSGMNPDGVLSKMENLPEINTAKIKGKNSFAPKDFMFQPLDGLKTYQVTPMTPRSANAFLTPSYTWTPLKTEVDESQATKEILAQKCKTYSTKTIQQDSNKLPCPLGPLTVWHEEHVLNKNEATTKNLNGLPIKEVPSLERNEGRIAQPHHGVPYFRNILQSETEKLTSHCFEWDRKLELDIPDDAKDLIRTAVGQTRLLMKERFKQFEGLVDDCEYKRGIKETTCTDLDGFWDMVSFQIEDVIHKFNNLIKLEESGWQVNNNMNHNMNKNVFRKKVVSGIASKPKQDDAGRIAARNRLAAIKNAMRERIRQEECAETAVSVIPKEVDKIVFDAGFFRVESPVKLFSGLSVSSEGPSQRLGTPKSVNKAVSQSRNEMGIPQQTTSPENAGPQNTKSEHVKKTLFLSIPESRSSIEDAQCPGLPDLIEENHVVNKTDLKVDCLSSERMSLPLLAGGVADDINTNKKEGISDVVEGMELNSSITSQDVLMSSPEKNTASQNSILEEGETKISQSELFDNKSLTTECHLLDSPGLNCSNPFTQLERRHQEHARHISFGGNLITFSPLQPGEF

[10] = target: T4, cysteines in MDA-MB-231 and Ramos cells (Homo sapiens, UniProt Q8N1F7); settings: 200 μM, insitu, 231
T4 sequence (Q8N1F7 1-819): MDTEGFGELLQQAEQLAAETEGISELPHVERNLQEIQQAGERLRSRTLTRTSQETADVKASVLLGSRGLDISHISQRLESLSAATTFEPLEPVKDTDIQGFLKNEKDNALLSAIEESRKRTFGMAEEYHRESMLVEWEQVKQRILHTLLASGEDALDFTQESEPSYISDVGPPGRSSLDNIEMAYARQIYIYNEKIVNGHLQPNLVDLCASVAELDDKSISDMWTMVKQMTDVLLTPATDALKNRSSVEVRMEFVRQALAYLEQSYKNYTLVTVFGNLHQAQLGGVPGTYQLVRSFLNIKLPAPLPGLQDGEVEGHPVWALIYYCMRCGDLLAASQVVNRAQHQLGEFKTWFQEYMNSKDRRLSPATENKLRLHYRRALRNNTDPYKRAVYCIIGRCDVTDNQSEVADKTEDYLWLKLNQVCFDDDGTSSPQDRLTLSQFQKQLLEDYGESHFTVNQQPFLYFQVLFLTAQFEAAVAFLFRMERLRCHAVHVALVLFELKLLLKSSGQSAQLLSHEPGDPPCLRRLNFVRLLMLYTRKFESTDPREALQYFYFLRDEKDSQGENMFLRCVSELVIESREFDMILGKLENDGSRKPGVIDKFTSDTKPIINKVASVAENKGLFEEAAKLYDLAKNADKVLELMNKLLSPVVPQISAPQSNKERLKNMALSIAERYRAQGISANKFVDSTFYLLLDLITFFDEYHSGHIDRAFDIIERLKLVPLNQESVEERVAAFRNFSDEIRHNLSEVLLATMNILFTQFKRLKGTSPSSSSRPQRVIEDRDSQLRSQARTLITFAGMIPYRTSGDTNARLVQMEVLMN

Chain of cysteines in MDA-MB-231 and Ramos cells (Homo sapiens, UniProt O60825) (O60825 whole entry): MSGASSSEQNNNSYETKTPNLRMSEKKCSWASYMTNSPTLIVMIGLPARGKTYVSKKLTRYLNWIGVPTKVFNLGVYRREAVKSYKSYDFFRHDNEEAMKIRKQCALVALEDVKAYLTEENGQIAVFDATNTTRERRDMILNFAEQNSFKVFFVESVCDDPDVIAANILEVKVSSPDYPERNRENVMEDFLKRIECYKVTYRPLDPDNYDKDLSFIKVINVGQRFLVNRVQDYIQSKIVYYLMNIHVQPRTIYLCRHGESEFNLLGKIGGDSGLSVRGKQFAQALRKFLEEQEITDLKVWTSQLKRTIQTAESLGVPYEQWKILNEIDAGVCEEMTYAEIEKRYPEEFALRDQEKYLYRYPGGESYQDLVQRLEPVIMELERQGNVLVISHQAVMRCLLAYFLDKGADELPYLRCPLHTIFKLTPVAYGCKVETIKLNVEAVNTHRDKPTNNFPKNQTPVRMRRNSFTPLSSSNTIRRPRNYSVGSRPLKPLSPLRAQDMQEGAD
Chain of cysteines in MDA-MB-231 and Ramos cells (Homo sapiens, UniProt Q96NY7) (Q96NY7 whole entry): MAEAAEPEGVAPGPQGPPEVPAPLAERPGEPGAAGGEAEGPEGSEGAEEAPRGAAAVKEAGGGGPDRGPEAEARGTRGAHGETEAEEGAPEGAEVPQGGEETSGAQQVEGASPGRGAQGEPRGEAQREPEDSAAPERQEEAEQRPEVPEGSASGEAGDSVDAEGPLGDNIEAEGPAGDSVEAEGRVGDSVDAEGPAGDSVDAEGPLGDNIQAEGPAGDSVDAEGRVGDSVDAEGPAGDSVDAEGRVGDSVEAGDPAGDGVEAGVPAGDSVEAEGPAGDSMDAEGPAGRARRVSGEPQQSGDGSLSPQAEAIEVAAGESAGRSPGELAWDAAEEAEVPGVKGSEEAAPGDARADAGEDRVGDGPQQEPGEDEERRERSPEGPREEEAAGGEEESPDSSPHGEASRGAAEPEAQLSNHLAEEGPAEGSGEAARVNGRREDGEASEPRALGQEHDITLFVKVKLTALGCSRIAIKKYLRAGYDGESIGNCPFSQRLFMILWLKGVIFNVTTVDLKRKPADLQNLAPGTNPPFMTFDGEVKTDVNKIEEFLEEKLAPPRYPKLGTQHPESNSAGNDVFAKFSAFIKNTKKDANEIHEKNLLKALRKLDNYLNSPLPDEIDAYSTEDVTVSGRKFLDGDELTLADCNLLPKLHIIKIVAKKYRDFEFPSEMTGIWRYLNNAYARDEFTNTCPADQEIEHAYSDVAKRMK
Chain of cysteines in MDA-MB-231 and Ramos cells (Homo sapiens, UniProt P04818) (P04818 whole entry): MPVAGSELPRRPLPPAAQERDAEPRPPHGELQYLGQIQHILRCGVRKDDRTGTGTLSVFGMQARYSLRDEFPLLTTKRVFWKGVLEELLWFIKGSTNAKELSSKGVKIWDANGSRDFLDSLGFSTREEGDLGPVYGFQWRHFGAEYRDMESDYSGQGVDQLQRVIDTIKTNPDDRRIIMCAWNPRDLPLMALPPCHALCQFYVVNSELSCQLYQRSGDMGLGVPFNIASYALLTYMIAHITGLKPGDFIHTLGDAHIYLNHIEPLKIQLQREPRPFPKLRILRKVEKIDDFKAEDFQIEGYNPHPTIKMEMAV
Chain of cysteines in MDA-MB-231 and Ramos cells (Homo sapiens, UniProt P35658) (P35658 whole entry): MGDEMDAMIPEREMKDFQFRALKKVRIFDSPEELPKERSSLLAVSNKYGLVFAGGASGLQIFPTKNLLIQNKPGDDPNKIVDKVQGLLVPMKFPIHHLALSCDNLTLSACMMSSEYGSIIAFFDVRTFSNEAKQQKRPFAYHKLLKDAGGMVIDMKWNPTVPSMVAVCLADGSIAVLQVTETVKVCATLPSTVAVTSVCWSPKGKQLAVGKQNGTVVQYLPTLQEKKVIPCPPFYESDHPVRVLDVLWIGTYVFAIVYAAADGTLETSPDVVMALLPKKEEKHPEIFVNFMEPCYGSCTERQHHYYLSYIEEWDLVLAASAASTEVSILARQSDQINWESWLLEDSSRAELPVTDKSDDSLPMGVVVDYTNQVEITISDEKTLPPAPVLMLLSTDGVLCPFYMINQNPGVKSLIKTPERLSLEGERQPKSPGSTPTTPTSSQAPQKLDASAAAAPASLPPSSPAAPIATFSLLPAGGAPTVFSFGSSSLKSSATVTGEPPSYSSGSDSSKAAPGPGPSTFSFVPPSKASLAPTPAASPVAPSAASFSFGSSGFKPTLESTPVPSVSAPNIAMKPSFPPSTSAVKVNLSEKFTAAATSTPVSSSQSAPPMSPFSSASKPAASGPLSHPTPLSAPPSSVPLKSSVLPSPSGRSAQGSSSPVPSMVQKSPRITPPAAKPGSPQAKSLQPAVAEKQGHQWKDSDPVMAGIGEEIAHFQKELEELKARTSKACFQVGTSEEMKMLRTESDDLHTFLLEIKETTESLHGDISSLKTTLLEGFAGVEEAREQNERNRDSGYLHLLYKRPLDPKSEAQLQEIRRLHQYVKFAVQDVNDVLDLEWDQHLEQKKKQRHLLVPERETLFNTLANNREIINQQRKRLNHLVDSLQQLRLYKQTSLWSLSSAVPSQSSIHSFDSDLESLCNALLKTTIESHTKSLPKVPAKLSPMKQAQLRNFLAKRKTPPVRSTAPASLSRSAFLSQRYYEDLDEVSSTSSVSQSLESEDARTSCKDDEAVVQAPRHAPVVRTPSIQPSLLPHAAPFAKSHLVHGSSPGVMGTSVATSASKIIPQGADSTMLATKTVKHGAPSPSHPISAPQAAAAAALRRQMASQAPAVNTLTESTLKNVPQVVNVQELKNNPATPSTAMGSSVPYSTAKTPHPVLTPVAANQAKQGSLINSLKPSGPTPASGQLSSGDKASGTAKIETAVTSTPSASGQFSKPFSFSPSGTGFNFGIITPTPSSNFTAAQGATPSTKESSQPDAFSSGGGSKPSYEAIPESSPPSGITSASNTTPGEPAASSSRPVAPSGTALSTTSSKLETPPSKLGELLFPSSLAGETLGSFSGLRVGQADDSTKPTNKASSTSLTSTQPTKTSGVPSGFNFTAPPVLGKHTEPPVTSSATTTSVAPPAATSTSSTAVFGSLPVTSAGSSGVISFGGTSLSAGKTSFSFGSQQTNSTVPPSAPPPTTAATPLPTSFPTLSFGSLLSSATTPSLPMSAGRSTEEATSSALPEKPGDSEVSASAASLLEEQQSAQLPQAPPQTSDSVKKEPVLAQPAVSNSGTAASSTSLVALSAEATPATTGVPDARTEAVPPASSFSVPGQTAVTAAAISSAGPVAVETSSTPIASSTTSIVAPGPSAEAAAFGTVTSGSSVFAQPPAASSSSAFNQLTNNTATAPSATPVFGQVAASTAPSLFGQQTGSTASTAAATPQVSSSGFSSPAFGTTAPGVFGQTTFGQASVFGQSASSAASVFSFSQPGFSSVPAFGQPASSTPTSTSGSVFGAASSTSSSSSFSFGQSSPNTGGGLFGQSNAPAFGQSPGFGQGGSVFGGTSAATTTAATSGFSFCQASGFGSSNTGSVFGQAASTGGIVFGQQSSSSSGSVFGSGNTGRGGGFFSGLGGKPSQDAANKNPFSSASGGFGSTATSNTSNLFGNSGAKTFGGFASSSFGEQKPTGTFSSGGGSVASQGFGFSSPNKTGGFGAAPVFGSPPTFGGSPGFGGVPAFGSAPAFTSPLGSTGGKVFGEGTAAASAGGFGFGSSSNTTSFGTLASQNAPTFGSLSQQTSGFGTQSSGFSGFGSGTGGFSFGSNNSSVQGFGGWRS
Chain of cysteines in MDA-MB-231 and Ramos cells (Homo sapiens, UniProt P48643) (P48643 whole entry): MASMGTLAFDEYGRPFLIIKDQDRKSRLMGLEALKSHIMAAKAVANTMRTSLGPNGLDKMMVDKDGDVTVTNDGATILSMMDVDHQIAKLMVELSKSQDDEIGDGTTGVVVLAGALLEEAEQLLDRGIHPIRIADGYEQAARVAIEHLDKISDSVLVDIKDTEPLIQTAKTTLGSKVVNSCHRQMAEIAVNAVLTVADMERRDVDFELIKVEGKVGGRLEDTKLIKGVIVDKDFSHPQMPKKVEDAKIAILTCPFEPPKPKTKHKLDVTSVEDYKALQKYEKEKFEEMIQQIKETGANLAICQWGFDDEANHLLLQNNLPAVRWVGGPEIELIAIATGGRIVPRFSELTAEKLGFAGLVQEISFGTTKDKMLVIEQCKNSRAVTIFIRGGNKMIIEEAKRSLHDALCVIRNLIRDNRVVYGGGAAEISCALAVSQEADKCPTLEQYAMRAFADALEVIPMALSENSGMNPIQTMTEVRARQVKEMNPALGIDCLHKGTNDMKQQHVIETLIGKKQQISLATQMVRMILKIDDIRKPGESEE

COc1ccc(C2CC(c3cccs3)=NN2C(=O)CCl)cc1 (stereo not shown) [compound 4]
isoTOP-ABPP reactivity P04818_C199 TYMS ([1]; 100 μM in situ 231): 20.0 | isoTOP-ABPP reactivity P07858_C211 CTSB ([2]; 100 μM in situ 231): 2.3 | isoTOP-ABPP reactivity P24468_C326 NR2F2 ([3]; 100 μM in situ 231): 20.0 | isoTOP-ABPP reactivity P35658_C728 NUP214 ([4]; 100 μM in situ 231): 1.7 | isoTOP-ABPP reactivity P48643_C253 CCT5 ([5]; 100 μM in situ 231): 0.8 | isoTOP-ABPP reactivity Q8NFH5_C255 NUP35 ([6]; 100 μM in situ 231): 3.9 | isoTOP-ABPP reactivity Q96NY7_C487 CLIC6 ([7]; 100 μM in situ 231): 20.0

O=C(CCl)Nc1cccc2ncccc12 [compound 51]
isoTOP-ABPP ratio O60825_C158 [8]; 231: 0.9 | isoTOP-ABPP ratio P04818_C199 ([1]; 200 μM, insitu, 231): 20.0 | isoTOP-ABPP ratio P48643_C253 [5]; 231: 0.8 | isoTOP-ABPP ratio Q15398_C129 [9]: 7.4

CC1CCc2ccccc2N1C(=O)CCl (stereo not shown) [compound 45]
isoTOP-ABPP ratio O60825_C158 [8]; 231: 1.3 | isoTOP-ABPP ratio P04818_C199 ([1]; 200 μM, insitu, 231): 20.0 | isoTOP-ABPP ratio P07858_C211 ([2]; 200 μM, insitu, 231): 2.4 | isoTOP-ABPP ratio P24468_C326 ([3]; 200 μM, insitu, 231): 20.0 | isoTOP-ABPP ratio P35658_C728 [4]: 3.1 | isoTOP-ABPP ratio P48643_C253 [5]; 231: 1.2 | isoTOP-ABPP ratio Q8N1F7_C522 [10]: 20.0 | isoTOP-ABPP ratio Q8NFH5_C255 [6]: 5.5 | isoTOP-ABPP ratio Q96NY7_C487 ([7]; 200 μM, insitu, 231): 1.8

O=C(CCl)NC(=O)NC12CC3CC(CC(C3)C1)C2 [compound 12]
isoTOP-ABPP ratio O60825_C158 [8]; 231: 0.8 | isoTOP-ABPP ratio P48643_C253 [5]; 231: 5.1 | isoTOP-ABPP ratio Q8N1F7_C522 [10]: 20.0 | isoTOP-ABPP ratio Q8NFH5_C255 [6]: 12.4 | isoTOP-ABPP ratio Q96NY7_C487 ([7]; 200 μM, insitu, 231): 20.0

O=C(CCl)N1CCN(S(=O)(=O)c2ccccc2F)CC1 [compound 10]
isoTOP-ABPP ratio O60825_C158 [8]; 231: 0.7 | isoTOP-ABPP ratio O60825_C158 ([8]; ramos): 1.2 | isoTOP-ABPP ratio, cysteine P04818_C199 ([1]; 200 μM, insitu, 231): 1.5 | isoTOP-ABPP ratio P07858_C211 ([2]; 200 μM, insitu, 231): 7.4 | isoTOP-ABPP ratio, cysteine P24468_C326 ([3]; 200 μM, insitu, 231): 20.0 | isoTOP-ABPP ratio P35658_C728 [4]: 20.0 | isoTOP-ABPP ratio P48643_C253 ([5]; ramos): 0.9 | isoTOP-ABPP ratio Q8NFH5_C255 [6]: 3.5 | isoTOP-ABPP ratio Q96NY7_C487 ([7]; 200 μM, insitu, 231): 3.2

CC(C)CCOCCNC(=O)CCl [compound 27]
isoTOP-ABPP ratio P04818_C199 ([1]; 200 μM, insitu, 231): 0.5 | isoTOP-ABPP ratio P07858_C211 ([2]; 200 μM, insitu, 231): 0.8 | isoTOP-ABPP ratio P24468_C326 ([3]; 200 μM, insitu, 231): 1.2 | isoTOP-ABPP ratio Q15398_C129 [9]: 0.5

O=C(CCl)N1CCC(Cc2ccccc2)CC1 [compound 9]
isoTOP-ABPP reactivity P07858_C211 CTSB ([2]; 200 μM, insitu, 231): 5.0 | isoTOP-ABPP reactivity Q96NY7_C487 CLIC6 ([7]; 200 μM, insitu, 231): 3.6
